Numbered stars: 1 amine (or outer) side, 2 acyl side, 3 side chain; on linkers, the order of the positions; unused ones are H or OH. Bridge positions count the residues as written; N and C are the ends. Square brackets hold non-standard residues; d marks the D form. Side chains are listed from the residue outwards. Peptide text beside a SMILES is read from it. * marks the point of attachment. Dip = N[C@H](C(=O)O)C(c1ccccc1)c1ccccc1; Hag = O=C([C@H](CCC=[*:3])N[*:1])[*:2]; Palmitoyl = CCCCCCCCCCCCCCCC(=O)*; tBuAla = CC(C)(C)C[C@H](N)C(=O)O; β3hF = N[C@H](CC(=O)O)Cc1ccccc1; Isovaleryl = CC(C)CC(=O)*; Ahx = NCCCCCC(=O)O
How the values were obtained:
[1] = target: T1, human ferroportin (SLC40A1) (Homo sapiens, UniProt Q9NP59); experiment: FPN activity assay: internalization/degradation of ferroportin-GFP in stably transfected HEK293 cells (decrease in GFP fluorescence); assay type: cell-based; conditions: compound incubated at least 18 hours
T1 sequence (Q9NP59 1-571): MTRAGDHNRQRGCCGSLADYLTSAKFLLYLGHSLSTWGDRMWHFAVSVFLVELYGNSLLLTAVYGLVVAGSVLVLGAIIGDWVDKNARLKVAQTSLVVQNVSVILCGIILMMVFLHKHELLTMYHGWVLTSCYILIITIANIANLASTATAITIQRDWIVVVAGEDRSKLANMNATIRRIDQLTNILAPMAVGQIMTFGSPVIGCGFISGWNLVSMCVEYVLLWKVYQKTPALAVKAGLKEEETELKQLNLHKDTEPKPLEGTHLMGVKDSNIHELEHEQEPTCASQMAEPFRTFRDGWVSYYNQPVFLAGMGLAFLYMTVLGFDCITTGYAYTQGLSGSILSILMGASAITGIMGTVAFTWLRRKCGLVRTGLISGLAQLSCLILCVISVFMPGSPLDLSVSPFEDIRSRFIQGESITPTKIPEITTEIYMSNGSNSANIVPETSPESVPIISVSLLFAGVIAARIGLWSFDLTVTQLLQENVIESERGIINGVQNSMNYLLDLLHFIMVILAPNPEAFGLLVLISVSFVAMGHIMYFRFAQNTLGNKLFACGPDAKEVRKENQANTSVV
Summary of the method: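 HEK293 cells stably expressing human ferroportin C-terminally fused to GFP were exposed to peptides for at least 18 h, at most 24 h. Internalization/degradation read as loss of GFP fluorescence; EC50 derived. Retro-inverse mini-hepcidin peptides used as control standards.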

ferroportin = target: T2, ferroportin (Homo sapiens, UniProt Q9NP59); experiment: T47D cell-based ferroportin internalization assay in presence of 0.5% mouse serum albumin (MSA); conditions: T47D cells
T2 sequence (Q9NP59 1-571): T1 sequence (Q9NP59 1-571)
Summary of the method: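 T47D cells exposed 1 hr to peptide series (10 points from ~5 μM) premixed 30 min at room temperature with 0.5% mouse serum albumin, then 200 nM AF647-labelled ferroportin-binding peptide for 2 hr. Flow cytometry MFI of live singlets; IC50 by 4-parameter fit.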

| IC50 [1] | IC50 (ferroportin) | SMILES |
| --- | --- | --- |
| 0.1 to 0.5 µM | 0.1 to 0.5 µM | CCCCCCCCCCCCCCCC(=O)NCCCCCC(=O)NCCCC[C@H](NC(=O)C[C@H](Cc1ccccc1)NC(=O)[C@@H]1CCC=CCC[C@H](NC(=O)CC(C)C)C(=O)N[C@@H]([C@@H](C)O)C(=O)N[C@@H](C)C(=O)N[C@@H](C(c2ccccc2)c2ccccc2)C(=O)N2CCC[C@H]2C(=O)N[C@@H](C)C(=O)N[C@@H]([C@@H](C)CC)C(=O)N1)C(=O)N[C@H](CCCCN)C(N)=O [Compd 42] (Isovaleryl-[Hag]TA[Dip]PAI[Hag][β3hF]K([Ahx-Palmitoyl])[dK]-NH2; staple 1-8) |
| 0.1 to 0.5 µM | 0.1 to 0.5 µM | CCCCCCCCCCCCCCCC(=O)NCCCCCC(=O)NCCCC[C@@H]1NC(=O)[C@H](C)NC(=O)[C@@H]2CCCN2C(=O)[C@H](C(c2ccccc2)c2ccccc2)NC(=O)[C@H](Cc2c[nH]cn2)NC(=O)[C@H]([C@@H](C)O)NC(=O)[C@@H](NC(=O)CC(C)C)CCC=CCC[C@@H](C(=O)N[C@H](CC(N)=O)Cc2ccccc2)NC1=O [Compd 25] (Isovaleryl-[Hag]TH[Dip]PAK([Ahx-Palmitoyl])[Hag][β3hF]-NH2; staple 1-8) |
| 0.001 to 0.01 µM | 0.001 to 0.01 µM | CCCCCCCCCCCCCCCC(=O)NCCCCCC(=O)NCCCC[C@H](NC(=O)C[C@H](Cc1ccccc1)NC(=O)[C@@H]1CCC=CCC[C@H](NC(=O)CC(C)C)C(=O)N[C@@H]([C@@H](C)O)C(=O)N[C@@H](Cc2c[nH]cn2)C(=O)N[C@@H](C(c2ccccc2)c2ccccc2)C(=O)N2CCC[C@H]2C(=O)N[C@@H](C)C(=O)N[C@@H](CC(C)(C)C)C(=O)N1)C(=O)N[C@H](CCCCN)C(N)=O [Compd 63] (Isovaleryl-[Hag]TH[Dip]PA[tBuAla][Hag][β3hF]K([Ahx-Palmitoyl])[dK]-NH2; staple 1-8) |
| 0.1 to 0.5 µM | 0.1 to 0.5 µM | CCCCCCCCCCCCCCCC(=O)NCCCCCC(=O)NCCCC[C@@H]1NC(=O)[C@H](C)NC(=O)[C@@H]2CCCN2C(=O)[C@H](C(c2ccccc2)c2ccccc2)NC(=O)[C@H](Cc2c[nH]cn2)NC(=O)[C@H]([C@@H](C)O)NC(=O)[C@@H](NC(=O)CC(C)C)CCC=CCC[C@@H](C(=O)N[C@H](CC(=O)N[C@H](CCCCN)C(N)=O)Cc2ccccc2)NC1=O (single isomer, unassigned) [Compd 37] |
| 0.001 to 0.01 µM | 0.01 to 0.1 µM | CCCCCCCCCCCCCCCC(=O)NCCCCCC(=O)NCCCC[C@@H](C(=O)N[C@H](CCCCN)C(N)=O)N(C)C(=O)C[C@H](Cc1ccccc1)NC(=O)[C@@H]1CCC=CCC[C@H](NC(=O)CC(C)C)C(=O)N[C@@H]([C@@H](C)O)C(=O)N[C@@H](Cc2c[nH]cn2)C(=O)N[C@@H](C(c2ccccc2)c2ccccc2)C(=O)N2CCC[C@H]2C(=O)N[C@@H](C)C(=O)N[C@@H]([C@@H](C)CC)C(=O)N1 [Compd 55] |
| 0.01 to 0.1 µM | 0.1 to 0.5 µM | CCCCCCCCCCCCCCCC(=O)NCCCCCC(=O)NCCCC[C@H](NC(=O)C[C@H](Cc1ccccc1)NC(=O)[C@H]1CCC=CCC[C@@H](NC(=O)CC(C)C)C(=O)N[C@@H]([C@@H](C)O)C(=O)N[C@@H](Cc2c[nH]cn2)C(=O)N[C@@H](C(c2ccccc2)c2ccccc2)C(=O)N2CCC[C@H]2C(=O)N[C@@H](C)C(=O)N[C@@H]([C@@H](C)CC)C(=O)N1)C(=O)N[C@H](CCCCN)C(N)=O [Compd 72] |
| 0.01 to 0.1 µM | 0.01 to 0.1 µM | CCCCCCCCCCCCCCCC(=O)NCCCCCC(=O)NCCCC[C@H](NC(=O)[C@H](CC(C)(C)C)NC(=O)[C@@H]1CCC=CCC[C@H](NC(=O)CC(C)C)C(=O)N[C@@H]([C@@H](C)O)C(=O)N[C@@H](Cc2c[nH]cn2)C(=O)N[C@@H](C(c2ccccc2)c2ccccc2)C(=O)N2CCC[C@H]2C(=O)N[C@@H](C)C(=O)N[C@@H]([C@@H](C)CC)C(=O)N1)C(=O)N[C@H](CCCCN)C(N)=O [Compd 64] (Isovaleryl-[Hag]TH[Dip]PAI[Hag][tBuAla]K([Ahx-Palmitoyl])[dK]-NH2; staple 1-8) |

— patent US20240209053A1 (Protagonist Therapeutics, Inc., priority 2021, published 2024)
